Measurements from US9801373B2, “Compounds for alleviating phosphate starvation symptoms in plants” (Commissariat a l'Energie Atomique et aux Energies …, priority 2012, dated 2017).

Assays:
Assay type in all cases: in vivo, Arabidopsis thaliana
PHT1 genes (PHT1;4) = test: qPCR of PHT1 transcript level on root mRNA; details: qPCR on root mRNA, FIG. 2 (B)
Experimental: Plant RNA was extracted with the RNeasy kit (QIAGEN, France). For transcriptome data, RNA were analysed by the CATMA technology (Complete Arabidopsis Transcriptome Microarray). For qPCR, poly(dT) cDNA were prepared from 500 ng total RNA with Superscript III reverse transcriptase (Invitrogen, France) and analysed on a LightCycler 480 apparatus (Roche Diagnostics, France) with the SYBR Green I Master kit (Roche Diagnostics, France) according to the manufacturer's instructions. Targets were quantified with specific primer pairs designed with Primer3 website (http://frodo.wi.mit.edu/primer3/) (see Table II below). Biological triplicates were performed for all experiments. Expression levels were normalized using At2g16600, At3g04120, At1g35160 and At1g32050 genes.

PHT1;4 expression = test: Chemical genetics screen, GUS staining of pht1;4-1 reporter line
Text: (§1) A “chemical genetics” approach has been carried out to isolate compounds that inhibit the phosphate (Pi) response in Arabidopsis thaliana. Compounds were screened for their ability to inhibit the expression of a phosphate starvation marker, namely the high affinity Pi transporter PHT1,4 gene. For the screening, the A. thaliana pht1;4-1 line (ecotype Wassilewskija) was chosen (Misson et al., 2004). It contains a T-DNA construct inserted into Pht1;4 gene creating a transcriptional fusion with a GUS reporter gene. For phenotypic analyses, A. thaliana Columbia and various lines derived from this ecotype were used. They are either transgenic lines expressing reporter gene as cycB1::GUS (Colón Carmona et al., 1999), MGD3::LUC, PHT1;4::LUC, At1g73010::LUC or various mutants affecting root response to low Pi such as: pdr2 (Ticconi et al., 2004), lpr1, lpr2 (Svistoonoff et al., 2007), lpi1, lpi2 and lpi3 (Sanchez-Calderon et al., 2006).
For the screening, the LATCA collection of 3600 biologically active compounds (Zhao et al., 2007) was used at a final concentration of 25 μM in 1% DMSO. Four to five Arabidopsis seeds of pht1;4-1 (Misson et al., 2004) reporter line were sown in 96-well plates containing 100 μL liquid MS/10 medium with 500 μM of Pi at pH 5.7. After 2 days at 4° C., plants were grown for five days in a culture chamber under a 16 h light/8 h dark regime (24/21° C., 150 μE m^−2s^−1). Medium was then replaced by MS/10 with only 5 μM Pi and the tested compounds were added to the 96-well plates. […] Five days later, plantlets were analysed by GUS staining to assay the activity of the reporter gene inserted in pht1;4 gene. […] Then, plates were analysed using a MZ16 stereomicroscope (Leica microsystems, Germany).
The GUS activity was detected as previously described by Jefferson et al. (1987), using a GUS staining solution containing 50 mM sodium phosphate buffer pH 7.0; 0.01% Triton X-100, 1 mM K3Fe(CN)6, 1 mM K4Fe(CN)6, 1 mg/ml 5-bromo-4-chloro-3-indolyl B-D-glucuronide (X-Gluc). […]

wild-type (WT) seedlings = test: Primary root growth of wild-type seedlings; details: for activity of PTN1 analogues (inhibitor activity of PHT1;4 expression and effect on the growth): WT seedlings, FIG. 6; for concentration at which active on primary root growth: −Pi
Experimental: (§2) In the Pi deficient medium, NaCl (0.5 mM) was used to replace the equivalent amount of sodium provided by NaH2PO4. For controls of the effects of the compounds, 1% of DMSO (Dimethyl sulfoxid, SIGMA, 472301), solvent for the tested compounds, was added. After 2 days at 4° C., the plates were placed in a vertical position and plants were grown in a culture chamber under a 16 h light/8 h dark regime (24/21° C., 150 μE m^−2s^−1). For 4 weeks culture, large plates (24×24 cm) were placed in a horizontal position. Root architecture and aerial part area were quantified using program ImageJ.

[1] = system: lpr1, lpr2 and lpi mutants; test: Primary root growth of mutants with reduced root sensitivity to Pi starvation; details: 7-days-old plants, PTN1 40 μM, FIG. 8
Text: as §1
In the Pi deficient medium, NaCl (0.5 mM) was used to replace the equivalent amount of sodium provided by NaH2PO4. For controls of the effects of the compounds, 1% of DMSO (Dimethyl sulfoxid, SIGMA, 472301), solvent for the tested compounds, was added. […] Root architecture and aerial part area were quantified using program ImageJ.

lpr1 mutant = test: Shoot growth of lpr1 mutant; details: −Pi, 28-days-old plants
Experimental: as §2

SMILES | effect on PHT1;4 transcript level (PHT1 genes (PHT1;4)) | toxicity as cause of reduced reporter gene expression (PHT1;4 expression; 25 μM, 5 days on −Pi) | activity of PTN1 analogues (inhibitor activity of PHT1;4 expression and effect on the growth) (wild-type (WT) seedlings) | primary root growth on −Pi (wild-type (WT) seedlings; WT, 7-day-old plantlets, FIG. 7 (A)) | concentration at which active on primary root growth (wild-type (WT) seedlings; FIG. 7 (A)) [µM] | PHT1;4 expression (analogue test) (PHT1;4 expression; 100 μM) | primary root growth of lpr1 or lpi mutants [1] | growth of the lpr1 rosette (lpr1 mutant) | primary root growth at various external Pi concentrations (15-250 uM) (wild-type (WT) seedlings; 10 uM, 5 days on Pi rich medium then 24 hours on tested conditions, FIG. 7 (D))
CS(=O)(=O)C1=C2C=CCCC2=C(C(=O)Sc2ccc(Cl)cc2)C1 [PTN2] | dose dependant manner | not explained by toxicity | – | – | – | – | – | – | –
Sc1ccc(Cl)cc1 [PTN3, 4-chlorothiophenol] | – | – | Active | sustained also the primary root growth | 100 | repressed PHT1;4 expression | – | – | –
Clc1ccc(SSc2ccc(Cl)cc2)cc1 [PTN4] | – | – | Active | – | 10 | – | no additive effect | +25% | improved root growth until 50/75 μM of Pi
